Test results: the supplement of paper PMC10290057
Values joined by “and” are separate entries in the source; they are usually repeats but may differ in a detail not shown here. Equal values may be shown once. Where a name gives a salt, the structure may show the parent alone.

The compounds below were run on HCT116 (assay: efficacy (fitted maximal change in viability relative to DMSO control); higher = less cytotoxic (negative = loss of viability)). Details: 48 h.
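Note: Luminescence-based viability readout, five doses per compound, normalized against on-plate DMSO and empty-well controls, followed by dose-response curve fitting for every drug.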

| Structure (SMILES) | efficacy |
| --- | --- |
| O=C(O)CNC(=O)C1C(=O)N(C2CCCCC2)C(=O)N(C2CCCCC2)C1=O [Daprodustat] | -6.36% |
| COc1cccc2c1C(=O)c1c(O)c3c(c(O)c1C2=O)C[C@@](O)(C(C)=O)C[C@@H]3O[C@H]1C[C@H](N)[C@H](O)[C@H](C)O1 [Daunorubicin] | -77.4% |
| CC(=O)OCC(=O)[C@@]12\N=C(C)/O[C@@H]1C[C@H]3[C@@H]4CCC/5=C/C(=O)/C=C\[C@]5(C)[C@H]4[C@@H](O)C[C@]23C [Deflazacort] | 9% |
| C[C@]12CC[C@H]3[C@@H](C\C=C/4C[C@@H](O)CC[C@]34C)[C@@H]1CCC2=O [Dehydroepiandrosterone] | -17% |
| C[C@@H](CN1CC(=O)NC(=O)C1)N1CC(=O)NC(=O)C1 [Dexrazoxane hydrochloride] | -22.3% |
| O=C([O-])Cc1ccccc1Nc1c(Cl)cccc1Cl [Diclofenac sodium] | -6.7% |
| N[S+](=O)([O-])c1cc(Cl)c(Cl)c([S+](N)(=O)[O-])c1 [Diclofenamide] | -19.2% |
| C/C=C(/C(=C/C)c1ccc(O)cc1)c1ccc(O)cc1 [Dienestrol] | -63.7% |
| C[C@]12CCC\3=C\4CCC(=O)\C=C4CC[C@H]3[C@@H]1CC[C@@]2(O)CC#N [Dienogest] | -15.9% |
| OC1=CC2=C(C(=C1)O)C(=O)\C=C(/O2)C3=CC(=C(O)C=C3)O [Digitoflavone] | -77.5% |
| c1ccc2c(Cc3c[nH]c4ccccc34)c[nH]c2c1 [Diindolylmethane] | -49.5% |
| COc1ccc([C@@H]2Sc3ccccc3N(CCN(C)C)C(=O)[C@@H]2OC(C)=O)cc1 [Diltiazem hydrochloride] | -17.5% |
| COC(=O)/C=C/C(=O)OC [Dimethyl fumarate] | -18.4% |
| COC1=CC=C(C=C1O)C/2=C/C(=O)C3=C(O2)C=C(O[C@@H]4O[C@H](CO[C@@H]5O[C@@H](C)[C@H](O)[C@@H](O)[C@H]5O)[C@@H](O)[C@H](O)[C@H]4O)C=C3O [Diosmin] | -15.2% |
| CN(C)CCOC(c1ccccc1)c1ccccc1 [Diphenhydramine hydrochloride] | -12.9% |
| OCCN(CCO)c1nc(N2CCCCC2)c2nc(N(CCO)CCO)nc(N3CCCCC3)c2n1 [Dipyridamole] | -30.3% |
| CC(=O)O[C@@]12CO[C@@H]1C[C@H](O)[C@@]1(C)C(=O)[C@H](O)C3=C(C)[C@@H](OC(=O)[C@H](O)[C@@H](NC(=O)OC(C)(C)C)c4ccccc4)C[C@@](O)([C@@H](OC(=O)c4ccccc4)[C@H]21)C3(C)C [Docetaxel] | -56.4% |
| CN(CCOc1ccc(N[S+](C)(=O)[O-])cc1)CCc1ccc(N[S+](C)(=O)[O-])cc1 [Dofetilide] | -5.68% |
| NCCc1ccc(O)c(O)c1 [Dopamine hydrochloride] | -16.8% |
| C[C@H](O)[C@H]1[C@@H]2[C@H](C)C(=C(\N2C1=O)C(O)=O)/S[C@@H]3CN[C@H](CN[S+](N)([O-])=O)C3 [Doripenem] | 5.86% |
| CCN[C@H]1C[C@H](C)[S+](=O)([O-])c2sc([S+](N)(=O)[O-])cc21 [Dorzolamide hydrochloride] | -11% |
| Cn1c(=O)c2c(ncn2CC2OCCO2)n(C)c1=O [Doxofylline] | -7.38% |
| CC1C\2C(O)C3C(N(C)C)C(=O)\C(=C(O)/C3(O)C(=O)C2=C(O)/C4=C1C=CC=C4O)C(N)=O (centres undefined) [Doxycycline] | -26.7% |

| Structure (SMILES) | efficacy |
| --- | --- |
| C[C@@H]1[C@H]\2[C@H](O)[C@H]3[C@H](N(C)C)\C(=C(C(N)=O)/C(=O)[C@@]3(O)\C(=C2C(=O)C4=C(O)C=CC=C14)O)O [Doxycycline] | 12.1% |
| C[C@]\12CCC(=O)\C=C1[C@@H]3C[C@@H]3[C@@H]4[C@@H]2CC[C@@]5(C)[C@H]4[C@@H]6C[C@@H]6[C@@]57CCC(=O)O7 [Drospirenone] | -38.8% |
| C[C@]12CCC3[C@@H](CC[C@H]4NC(=O)\C=C/[C@]34C)[C@@H]1CC[C@@H]2C(=O)NC5=CC(=CC=C5C(F)(F)F)C(F)(F)F (some centres undefined) [Dutasteride] | -20% |
| Cn1c(=O)c2c(ncn2CC(O)CO)n(C)c1=O (centres undefined) [Dyphylline] | -13% |
| O=C1NNc2nc(CN3Cc4ccccc4C3)nc3cccc1c23 [E-7449] | -29.7% |
| COc1ccc([S+](=O)([O-])Nc2cc(-c3csc(C#N)c3)ccc2C)cc1 [EL-102] | -62% |
| CN1CCN(C(=O)[C@H]2[C@@H](C(=O)O)[C@H]3CC[C@@H]2O3)CC1 [EMPM] | -12% |
| C[C@@H](C1CC[C@@]2(O)C3=CC(=O)[C@@H]4C[C@@H](O)[C@@H](O)C[C@]4(C)[C@H]3CC[C@]12C)[C@H](O)CCC(C)(C)O (some centres undefined) [Ecdysone] | -17.9% |
| C\C1=N\N(C(=O)C1)C2=CC=CC=C2 [Edaravone] | -11.9% |
| Cc1cc(Oc2ccc3nc(COc4ccc(CC5SC(=O)NC5=O)cc4)n(C)c3c2)cc(C)c1N (centres undefined) [Efatutazone] | -24.7% |
| O=C1Nc2ccc(Cl)cc2[C@@](C#CC2CC2)(C(F)(F)F)O1 [Efavirenz] | -85.4% |
| NCCCC(N)(C(=O)O)C(F)F (centres undefined) [Eflornithine Hydrochloride] | 19% |
| COc1cc2c(cc1OC)CN(CCc1ccc(NC(=O)c3cccc4c(=O)c5cccc(OC)c5[nH]c34)cc1)CC2 [Elacridar] | -16.8% |
| COC1=C(F)C(=CC=C1)C/2=C(C)/N(CC3=C(F)C=CC=C3C(F)(F)F)C(=O)N(C[C@H](NCCCC(O)=O)C4=CC=CC=C4)C2=O [Elagolix] | -32.8% and -32.2% |
| CN(NC(=O)CC(=O)NN(C)C(=S)c1ccccc1)C(=S)c1ccccc1 [Elesclomol (STA-4783)] | -39.3% |
| CC1=NN(c2ccc(C)c(C)c2)C(=O)/C1=N/Nc1cccc(-c2cccc(C(=O)O)c2)c1O [Eltrombopag olamine] | -17.2% |
| COC1=CC2=C(C=C1CC3=C(F)C(=CC=C3)Cl)C(=O)\C(=C/N2[C@H](CO)C(C)C)C(O)=O [Elvitegravir] | -72.2% |
| Cc1cc(O)c2c(c1)C(=O)c1cc(O)cc(O)c1C2=O [Emodin] | -31.9% |
| CCOC(=O)[C@H](CCc1ccccc1)N[C@@H](C)C(=O)N1CCC[C@H]1C(=O)O [Enalapril maleate] | -15.7% |
| CC/C(=C(/c1ccc(O)cc1)c1ccc(OCCNC)cc1)c1ccccc1 [Endoxifen] | -71.8% |
| CC1(C)[C@@H](O)CC[C@@]2(C)[C@H]1CC[C@]3(C)[C@@H]2C(=O)\C=C/4[C@@H]5C[C@](C)(CC[C@]5(C)CC[C@@]34C)C(O)=O [Enoxolone] | -35.4% |
| CNC(=O)c1ccc(N2C(=S)N(c3ccc(C#N)c(C(F)(F)F)c3)C(=O)C2(C)C)cc1F [Enzalutamide] | -37% |
| N[S+](=O)([O-])NCCNc1nonc1/C(=N/O)Nc1ccc(F)c(Br)c1 [Epacadostat] | -25.2% |

| Structure (SMILES) | efficacy |
| --- | --- |
| CNC[C@H](O)c1ccc(O)c(O)c1 [Epinephrine] | -17.8% |
| COC(=O)[C@@H]1CC/2=C/C(=O)CC[C@]2(C)[C@@]34O[C@@H]3C[C@@]5(C)[C@@H](CC[C@@]56CCC(=O)O6)[C@H]14 [Eplerenone] | -6.15% |
| C/C(=C\c1csc(C)n1)[C@@H]1C[C@@H]2O[C@@H]2CCC[C@H](C)[C@H](O)[C@@H](C)C(=O)C(C)(C)[C@@H](O)CC(=O)O1 [Epothilone A] | -68.2% |
| O=C(O)CSCC(=O)NC1CCSC1=O (centres undefined) [Erdosteine] | 9.04% |
| CC[C@H]1OC(=O)[C@H](C)[C@@H](O[C@H]2C[C@@](C)(OC)[C@@H](O)[C@H](C)O2)[C@H](C)[C@@H](O[C@@H]2O[C@H](C)C[C@H](N(C)C)[C@H]2O)[C@](C)(O)C[C@@H](C)C(=O)[C@H](C)[C@@H](O)[C@]1(C)O [Erythromycin] | 23% |
| C[C@]12CC[C@@H]3c4ccc(O)cc4CC[C@H]3[C@@H]1[C@@H](O)[C@@H](O)[C@@H]2O [Estetrol] | -16.1% |
| C[C@]12CC[C@@H]3c4ccc(O)cc4CC[C@H]3[C@@H]1C[C@@H](O)[C@@H]2O [Estriol] | -52.3% |
| C[C@]12CCC3c4ccc(O)cc4CCC3C1CCC2=O (some centres undefined) [Estrone] | -24.4% |
| C#C[C@]1(O)CC[C@H]2[C@@H]3CCc4cc(O)ccc4[C@H]3CC[C@@]21C [Ethinylestradiol] | -54.2% |
| CCC1(C)CC(=O)NC1=O (centres undefined) [Ethosuximide] | -10.2% |
| Cc1ccc(-c2ncc(Cl)cc2-c2ccc([S+](C)(=O)[O-])cc2)cn1 [Etoricoxib] | -16.9% |
| CO[C@H]1C[C@@H]2CC[C@@H](C)[C@@](O)(O2)C(=O)C(=O)N2CCCC[C@H]2C(=O)O[C@H]([C@H](C)C[C@@H]2CC[C@@H](OCCO)[C@H](OC)C2)CC(=O)[C@H](C)/C=C(/C)[C@@H](O)[C@@H](OC)C(=O)[C@H](C)C[C@H](C)\C=C/C=C\C=C/1C [Everolimus] | -57.4% |
| CC(=O)N[C@H]1CSSC[C@@H](C(N)=O)NC(=O)[C@H](C(C)C)NC(=O)[C@H](C)NC(=O)[C@H](Cc2cnc[nH]2)NC1=O [Exherin] | -8% |
| CCOC(=O)[C@@H](N)CCC(=O)N[C@@H](CSCc1ccccc1)C(=O)N[C@@H](C(=O)OCC)c1ccccc1 [Ezatiostat] | -18.5% |
| O=C1[C@H](CC[C@H](O)c2ccc(F)cc2)[C@@H](c2ccc(O)cc2)N1c1ccc(F)cc1 [Ezetimibe] | -48.2% |
| CC[S+](=O)([O-])c1ccc2oc(-c3ccc4ccccc4c3)nc2c1 [Ezutromid] | -24.2% |
| CCC(=O)N[C@H]1CC[C@H](C(=O)N(C)c2ccc(-c3nc4ccccc4o3)cc2)C1 [FASN BI] | -31.4% |
| COC1=CC=CC=C1C2=CC=CC(=C2)C/3=C(O)/C4=CC(=C(Cl)C=C4NC3=O)C#N [FASN MRK] | -12.8% |
| O=C(O)CNC(=O)c1nc(Cl)c2ccccc2c1O [FG-2216] | -7.52% |
| CC1(C)O[C@@H]2C[C@H]3[C@@H]4C[C@H](F)\C5=C\C(=O)\C=C/[C@]5(C)[C@H]4[C@@H](O)C[C@]3(C)[C@@]2(O1)C(=O)CO [FLUNISOLIDE] | -18.4% |
| CCN1C(=O)\C(=C/C2=CN=C(NCCC3CCN(C)CC3)N=C12)C4=CC=C(C=C4Cl)C5=CN=CC(=N5)C [FRAX-1036] | -62.9% |
| N#Cc1ccc(C2CCCc3cncn32)cc1 (centres undefined) [Fadrozole] | -10.8% |
| CC(=O)OCC(CCn1cnc2cnc(N)nc21)COC(C)=O [Famciclovir] | -14.2% |
